Data reported in US20170326125A1, “MULTISUBSTITUTED AROMATIC COMPOUNDS AS INHIBITORS OF THROMBIN” (VERSEON CORPORATION, priority 2016, published 2017).

biological target: T1, Human thrombin (Homo sapiens, UniProt P00734); test: Inhibition of the protease activity of thrombin (chromogenic substrate S-2238); type: biochemical; settings: Table C; 3 nM thrombin, 125 μM S-2238, 10 min pre-incubation, RT
T1 construct: purchased Haematologic Technologies Inc

| Compound | IC50 |
| --- | --- |
| COC(=O)c1n[nH]c(NC(=O)c2ccoc2C)n1 [Cmpd 379, methyl 5-(2-methylfuran-3-amido)-1H-1,2,4-triazole-3-carboxylate] | > 1000 nM |
| COC(=O)c1n[nH]c(NC(=O)c2ccccc2C)n1 [Cmpd 380, methyl 5-[(2-methylbenzene)amido]-1H-1,2,4-triazole-3-carboxylate] | > 1000 nM |
| COC(=O)c1n[nH]c(NC2=NCCCCC2)n1 [Cmpd 381, methyl 5-[(3,4,5,6-tetrahydro-2H-azepin-7-yl)amino]-1H-1,2,4-triazole-3-carboxylate] | > 1000 nM |
| COC(=O)c1n[nH]c(NC(=O)c2cccc(C)c2)n1 [Cmpd 382, methyl 5-[(3-methylbenzene)amido]-1H-1,2,4-triazole-3-carboxylate] | > 1000 nM |
| COC(=O)c1nnc(NC(=O)c2ccc(Br)cc2)[nH]1 [Cmpd 383, methyl 5-[(4-bromobenzene)amido]-1H-1,2,4-triazole-3-carboxylate] | > 1000 nM |
| COC(=O)c1n[nH]c(N=Cc2cccnc2)n1 [Cmpd 387, methyl 5-[(pyridin-3-ylmethylidene)amino]-1H-1,2,4-triazole-3-carboxylate] | > 1000 nM |
| COC(=O)c1n[nH]c(NC(=O)CCc2ccc(C)cc2)n1 [Cmpd 388, methyl 5-[3-(4-methylphenyl)propanamido]-1H-1,2,4-triazole-3-carboxylate] | > 1000 nM |
| O=C(Nc1ccc(Cl)cc1Cl)c1n[nH]c(Cn2cncn2)n1 [Cmpd 390, N-(2,4-dichlorophenyl)-5-(1H-1,2,4-triazol-1-ylmethyl)-4H-1,2,4-triazole-3-carboxamide] | > 1000 nM |
| O=C(Nc1ccccc1Cl)c1nc(-n2cnnc2)n[nH]1 [Cmpd 391, N-(2-chlorophenyl)-3-(4H-1,2,4-triazol-4-yl)-1H-1,2,4-triazole-5-carboxamide] | > 1000 nM |
| O=C(Nc1ccc(Br)cc1)c1nc(-n2cnnc2)n[nH]1 [Cmpd 392, N-(4-bromophenyl)-3-(4H-1,2,4-triazol-4-yl)-1H-1,2,4-triazole-5-carboxamide] | > 1000 nM |
| CCOc1ccc(NC(=O)c2nc(-n3cnnc3)n[nH]2)cc1 [Cmpd 393, N-(4-ethoxyphenyl)-3-(4H-1,2,4-triazol-4-yl)-1H-1,2,4-triazole-5-carboxamide] | > 1000 nM |
| CS(=O)(=O)n1nc(-c2cccnc2)nc1NCc1ccco1 [Cmpd 395, N-(furan-2-ylmethyl)-1-methanesulfonyl-3-(pyridin-3-yl)-1H-1,2,4-triazol-5-amine] | > 1000 nM |
| O=C(c1cccnc1)n1nc(-c2cccnc2)nc1NCc1ccco1 [Cmpd 396, N-(furan-2-ylmethyl)-3-(pyridin-3-yl)-1-[(pyridin-3-yl)carbonyl]-1H-1,2,4-triazol-5-amine] | > 1000 nM |
| COc1ccccc1CNc1nc(-c2cccnc2)nn1C(=O)c1cccnc1 [Cmpd 398, N-[(2-methoxyphenyl)methyl]-3-(pyridin-3-yl)-1-[(pyridin-3-yl)carbonyl]-1H-1,2,4-triazol-5-amine] | > 1000 nM |

Second part, the compound after the results:

| IC50 | Compound |
| --- | --- |
| < 100 nM | CC(=O)n1nc(-c2cccnc2)nc1NCc1ccco1 [Cmpd 363, 1-5-[(furan-2-ylmethyl)amino]-3-(pyridin-3-yl)-1H-1,2,4-triazol-1-ylethan-1-one] |
| 100 to 1000 nM | CCC(=O)n1nc(-c2cccnc2)nc1NCc1ccco1 [Cmpd 364, 1-5-[(furan-2-ylmethyl)amino]-3-(pyridin-3-yl)-1H-1,2,4-triazol-1-ylpropan-1-one] |
| > 1000 nM | O=C(Nc1n[nH]c(-c2ccco2)n1)c1ccccc1F [Cmpd 365, 2-fluoro-N-[5-(furan-2-yl)-1H-1,2,4-triazol-3-yl]benzamide] |
| < 100 nM | Cc1ccc(CNc2nc(-c3cccnc3)nn2C(=O)C(C)C)cc1 [Cmpd 366, 2-methyl-1-(5-[(4-methylphenyl)methyl]amino-3-(pyridin-3-yl)-1H-1,2,4-triazol-1-yl)propan-1-one] |
| < 100 nM | COc1ccccc1C(=O)n1nc(-c2ccco2)nc1SC [Cmpd 367, 3-(furan-2-yl)-1-[(2-methoxyphenyl)carbonyl]-5-(methylsulfanyl)-1H-1,2,4-triazole] |
| < 100 nM | O=C(c1cccnc1)n1nc(-c2ccco2)nc1NCc1cccs1 [Cmpd 368, 3-(furan-2-yl)-1-[(pyridin-3-yl)carbonyl]-N-(thiophen-2-ylmethyl)-1H-1,2,4-triazol-5-amine] |
| > 1000 nM | CS(=O)(=O)n1nc(-c2ccco2)nc1NCc1cccs1 [Cmpd 369, 3-(furan-2-yl)-1-methanesulfonyl-N-(thiophen-2-ylmethyl)-1H-1,2,4-triazol-5-amine] |
| 100 to 1000 nM | COc1ccccc1CNc1nc(-c2ccco2)nn1C(=O)c1ccc(C)cc1 [Cmpd 370, 3-(furan-2-yl)-N-[(2-methoxyphenyl)methyl]-1-[(4-methylphenyl)carbonyl]-1H-1,2,4-triazol-5-amine] |
| 100 to 1000 nM | COc1ccc(CNc2nc(-c3ccco3)nn2C(=O)c2ccc(C)cc2)cc1 [Cmpd 371, 3-(furan-2-yl)-N-[(4-methoxyphenyl)methyl]-1-[(4-methylphenyl)carbonyl]-1H-1,2,4-triazol-5-amine] |
| 100 to 1000 nM | O=C(c1cccnc1)n1nc(-c2cccnc2)nc1NCc1cccs1 [Cmpd 372, 3-(pyridin-3-yl)-1-[(pyridin-3-yl)carbonyl]-N-(thiophen-2-ylmethyl)-1H-1,2,4-triazol-5-amine] |
| > 1000 nM | Nc1nc(-c2cccs2)n[nH]1 [Cmpd 373, 3-(thiophen-2-yl)-1H-1,2,4-triazol-5-amine] |
| < 100 nM | Cc1ccc(CNc2nc(-c3cccnc3)nn2C(=O)CC(C)C)cc1 [Cmpd 374, 3-methyl-1-(5-[(4-methylphenyl)methyl]amino-3-(pyridin-3-yl)-1H-1,2,4-triazol-1-yl)butan-1-one] |
| < 100 nM | CC(C)CC(=O)n1nc(-c2cccnc2)nc1NCc1cccs1 [Cmpd 375, 3-methyl-1-[3-(pyridin-3-yl)-5-[(thiophen-2-ylmethyl)amino]-1H-1,2,4-triazol-1-yl]butan-1-one] |
| > 1000 nM | CCOC(=O)n1nc(-c2ccc(Cl)cc2)cc1N [Cmpd 376, ethyl 5-amino-3-(4-chlorophenyl)-1H-pyrazole-1-carboxylate] |
| > 1000 nM | COC(=O)c1nc(NC(=O)c2ccc(Cl)cc2Cl)n[nH]1 [Cmpd 377, methyl 3-[(2,4-dichlorobenzene)amido]-1H-1,2,4-triazole-5-carboxylate] |
| > 1000 nM | COC(=O)c1n[nH]c(NC(=O)C(C)(C)C)n1 [Cmpd 378, methyl 5-(2,2-dimethylpropanamido)-1H-1,2,4-triazole-3-carboxylate] |
| 100 to 1000 nM | COC(=O)c1nnc(NC(=O)c2ccc(F)cc2)[nH]1 [Cmpd 385, methyl 5-[(4-fluorobenzene)amido]-4H-1,2,4-triazole-3-carboxylate] |
| < 100 nM | COc1ccccc1C(=O)n1nc(-c2ccccc2)nc1NCc1ccco1 [Cmpd 394, N-(furan-2-ylmethyl)-1-[(2-methoxyphenyl)carbonyl]-3-phenyl-1H-1,2,4-triazol-5-amine] |
| 100 to 1000 nM | O=C(c1cccnc1)n1nc(-c2ccco2)nc1NCc1ccccc1Cl [Cmpd 397, N-[(2-chlorophenyl)methyl]-3-(furan-2-yl)-1-[(pyridin-3-yl)carbonyl]-1H-1,2,4-triazol-5-amine] |
| < 100 nM | Cc1ccc(C(=O)n2nc(-c3cccnc3)nc2NCc2ccc(F)cc2)cc1 [Cmpd 401, N-[(4-fluorophenyl)methyl]-1-[(4-methylphenyl)carbonyl]-3-(pyridin-3-yl)-1H-1,2,4-triazol-5-amine] |
